Reference: patent US20220144854A1, “MACROCYCLIC COMPOUNDS” (ZENO MANAGEMENT, INC., priority 2019, published 2022)

Experiments:
[1] = from COC(=O)c1c(CCCI)c2ccc(Cl)c(-c3c(CN(Cc4cc(CCc5cc(O)c6ccccc6c5)n(C)n4)C(=O)OC(C)(C)C)nn4c3CCC4)c2n1C; ether bond; 21-membered ring; K2CO3; MeCN; 3.61 mM; 60.0 °C
Mcl-1 = Mcl-1 (Homo sapiens, UniProt Q07820); assay: Mcl-1 Homogeneous Time Resolved Fluorescence (HTRF) binding assay; details: HTRF; 4 nM Mcl-1, 100 nM FAM-Bak peptide; 10-dose, singlicate; read-out: Mcl-1 IC50
Chain of Mcl-1 (Q07820 whole entry): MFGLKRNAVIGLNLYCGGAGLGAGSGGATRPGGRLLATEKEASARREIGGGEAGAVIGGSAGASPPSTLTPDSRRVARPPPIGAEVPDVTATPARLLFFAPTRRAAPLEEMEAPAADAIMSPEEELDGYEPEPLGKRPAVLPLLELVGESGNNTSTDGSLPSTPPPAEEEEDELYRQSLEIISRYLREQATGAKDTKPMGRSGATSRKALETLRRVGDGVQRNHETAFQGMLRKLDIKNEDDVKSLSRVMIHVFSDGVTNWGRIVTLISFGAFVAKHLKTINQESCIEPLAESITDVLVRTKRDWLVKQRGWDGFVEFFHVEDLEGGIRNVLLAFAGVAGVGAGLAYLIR

[2] = tested on: NCI-H929 (ATCC CRL-9068) cells; assay: NCI-H929 cell proliferation assay (CellTiter-Glo); type: cell-based; details: 72 h of compound treatment
Protocol: Cell proliferation was measured using the CellTiter-Glo® Luminescent Cell Viability Assay. The assay involved the addition of a single reagent (CellTiter-Glo® Reagent) directly to cells cultured in serum-supplemented medium.
Each compound evaluated was prepared as a DMSO stock solution (10 mM). Compounds were tested in duplicate on each plate, with a 10-point serial dilution curve (1:3 dilution). Compound treatment ([…]) was added from the compound dilution plate to the cell plate. The highest compound concentration was 10 μM (final), with a 0.1% final DMSO concentration. Plates were then incubated at 37° C., 5% CO2. After 72 h of compound treatment, cell plates were equilibrated at rt for approximately 30 mins. An equi-volume amount of CellTiter-Glo® Reagent (40 μL) was added to each well. Plates were mixed for 2 mins on an orbital shaker to induce cell lysis and then incubated at rt for 10 mins to stabilize the luminescent signal. Luminescence was recorded using an Envision plate reader according to CellTiter-Glo protocol. IC50 of each compound was calculated using GraphPad Prism by nonlinear regression analysis.

| Compound | ring closure, isolated yield [1] | IC50 (Mcl-1) | IC50 ([2]; Homo sapiens, NCI-H929, 72 h) | IC50 [2] |
| --- | --- | --- | --- | --- |
| COC(=O)c1c2c3ccc(Cl)c(c3n1C)-c1c(nn3c1CCC3)CN(C(=O)OC(C)(C)C)Cc1cc(n(C)n1)CCc1cc(c3ccccc3c1)OCCC2 | 40% |  |  |  |
| Cc1c2c(nn1C)CSCc1cc(n(C)n1)CSc1cc(c3ccccc3c1)OCCCc1c(C(=O)O)n(C)c3c-2c(F)ccc13 (single isomer, unassigned) [Example 14A, (Z)-1^6-Fluoro-1^1,2^1,2^5,6^1-tetramethyl-1^1H,2^1H,6^1H-10-oxa-4,8-dithia-1(7,3)-indola-2(4,3),6(3,5)-dipyrazola-9(3,1)-naphthalenacyclotridecaphane-1^2-carboxylic acid] |  | < 10 nM | < 100 nM |  |
| CCn1nc2cc1CSc1cc(c3ccccc3c1)OCCCc1c(C(=O)O)n(C)c3c(c(F)ccc13)-c1c(C)nn(C)c1CSC2 (single isomer, unassigned) [Example 15A, (Z)-6^1-Ethyl-1^6-fluoro-1^1,2^1,2^3-trimethyl-1^1H,2^1H,6^1H-10-oxa-4,8-dithia-1(7,3)-indola-2(4,5),6(3,5)-dipyrazola-9(3,1)-naphthalenacyclotridecaphane-1^2-carboxylic acid] |  | > 100 nM | > 1000 nM |  |
| Cc1nn(C)c2c1-c1c(F)ccc3c(c(C(=O)O)n(C)c13)CCCOc1cc(cc3ccccc13)SCc1cc(nn1C(C)C)CSC2 (single isomer, unassigned) [Example 16A, (Z)-1^6-Fluoro-6^1-isopropyl-1^1,2^1,2^3-trimethyl-1^1H,2^1H,6^1H-10-oxa-4,8-dithia-1(7,3)-indola-2(4,5),6(3,5)-dipyrazola-9(3,1)-naphthalenacyclotridecaphane-1^2-carboxylic acid] |  | < 10 nM |  | < 100 nM |
| Cc1nn(C)c2c1-c1c(F)ccc3c(c(C(=O)O)n(C)c13)CCCOc1cc(cc3ccccc13)SCc1cc(nn1CC(C)C)CSC2 (single isomer, unassigned) [Example 17A, (Z)-1^6-Fluoro-6^1-isobutyl-1^1,2^1,2^3-trimethyl-1^1H,2^1H,6^1H-10-oxa-4,8-dithia-1(7,3)-indola-2(4,5),6(3,5)-dipyrazola-9(3,1)-naphthalenacyclotridecaphane-1^2-carboxylic acid] |  | > 100 nM |  | > 1000 nM |
| Cc1nn(C)c2c1-c1c(F)ccc3c(c(C(=O)O)n(C)c13)CCCOc1cc(cc3ccccc13)SCc1cc(nn1CC1CC1)CSC2 (single isomer, unassigned) [Example 18A] |  | > 100 nM | > 1000 nM |  |
| Cc1nn(C23CC(C2)C3)c2c1-c1c(Cl)ccc3c(c(C(=O)O)n(C)c13)CCCOc1cc(cc3ccccc13)SCc1cc(nn1C)CSC2 (single isomer, unassigned) [Example 20A, (Z)-2^1-(Bicyclo[1.1.1]pentan-1-yl)-1^6-chloro-1^1,2^3,6^1-trimethyl-1^1H,2^1H,6^1H-10-oxa-4,8-dithia-1(7,3)-indola-2(4,5),6(3,5)-dipyrazola-9(3,1)-naphthalenacyclotridecaphane-1^2-carboxylic acid] |  | 10 to 100 nM |  | > 1000 nM |
| Cc1nn(C23CC(C2)C3)c2c1-c1c(Cl)ccc3c(c(C(=O)O)n(C)c13)CCCOc1cc(cc3ccccc13)SCc1cc(nn1C)CSC2 (single isomer, unassigned) [Example 20B, (Z)-2^1-(Bicyclo[1.1.1]pentan-1-yl)-1^6-chloro-1^1,2^3,6^1-trimethyl-1^1H,2^1H,6^1H-10-oxa-4,8-dithia-1(7,3)-indola-2(4,5),6(3,5)-dipyrazola-9(3,1)-naphthalenacyclotridecaphane-1^2-carboxylic acid] |  | < 10 nM |  | < 100 nM |
| Cc1nn(C23CC(C2)C3)c2c1-c1c(Cl)ccc3c(c(C(=O)O)n(C)c13)CCCOc1cc(cc3ccccc13)SCc1cc(n[nH]1)CSC2 (single isomer, unassigned) [Example 21B, (Z)-2^1-(Bicyclo[1.1.1]pentan-1-yl)-1^6-chloro-1^1,2^3-dimethyl-1^1H,2^1H,6^1H-10-oxa-4,8-dithia-1(7,3)-indola-2(4,5),6(3,5)-dipyrazola-9(3,1)-naphthalenacyclotridecaphane-1^2-carboxylic acid] |  | < 10 nM | < 100 nM |  |
